Consider two compounds from article PMC7766225, “Structure-Based Discovery and Bioactivity Evaluation of Novel Aurora-A Kinase Inhibitors as Anticancer Agents via Docking-Based Comparative Intermolecular Contacts Analysis (dbCICA)” (Molecules, 2020).

One may read the inhibition as the drop in the measured response relative to a control, in per cent. In general, IC50 refers to the concentration needed to halve the response being measured.

The structures appear in SMILES notation. Several values for one entry are separate records, joined by “and”; a condition that tells them apart may be missing. Equal entries are not always repeated.

In one assay the test system is Fibroblasts. Kind of assay: MTT cytotoxicity assay on normal fibroblasts (safety index). The assay is classed as cell-based. The settings on record: Homo sapiens, Fibroblast, 72 h. As to the method:
(§1) The human cell-lines triple negative breast adenocarcinoma MDA-MB-231, Pancreas adenocarcinoma PANC1, ductal breast carcinoma T-47D and fibroblasts were preserved and expanded in DMEM medium, while the prostate adenocarcinoma PC-3 cells were cultured in RPMI-1640 growth medium. All growth media were supplemented with 10% heat-inactivated fetal bovine serum (FBS). Cells were maintained under standard culture conditions at 37 °C, 5% CO2 in a humidified incubator. At 80% confluency, cells were washed with 5 mL phosphate buffer saline (1X PBS), then incubated for 4 min with 2–3 mL Trypsin-EDTA 0.25% in order to obtain suspended cells and collect them in a known volume of fresh media for cell count. Cells were counted using conventional hemocytometer and trypan blue dye method.
(§2) The five potent hits that have shown anti-Aurora-A Kinase inhibition percentages above 51% at 10 μM upon conducting the kinase enzyme Inhibition assay (Table 5) were further validated using MTT cytotoxicity Assay. This assay includes 3-(4,5-Dimethylthiazol-2-yl)-2,5-diphenyl tetrazolium bromide (MTT) dye, which is a yellowish tetrazole reduced by viable cells into formazan purple color, which detects the normal mitochondrial role in viable cells. In 96-well coated flat bottom microplates, 100 μL cell suspension of PANC1 or T-47D cells were seeded at a density of 7000 cell/well, and 6000 cell/well for MDA-MB-231, PC-3, or fibroblasts, and incubated under the same conditions at 37 °C. After 24 h, each well was treated with the intended drug concentration diluted in 200 μL fresh media after removal of the old 100-μL media. After 72 h incubation, drug-containing media was aspirated and on each well 100 μL phenol-red free media and 15-μL MTT solution (5 mg/mL (wt/vol) PBS). After 3 h of dark incubation at 37 °C, MTT and media were carefully withdrawn from each well, and 200 μL/well DMSO were added. Colorimetric absorbance (OD) was measured at 570 nm wavelength using 96-well plate reader (Tecan-Sunrise, Männedorf, Switzerland).
(§3) The five compounds were prepared in a stock concentrate of 10 mM using cell culture grade DMSO to be utilized in MTT assay. The cytotoxicity of each compound was initially screened on cancer cell-lines at two concentrations: 50 μM and 25 μM in duplicates. […] The safety index for the compounds with specified IC50 values was evaluated via determining their IC50 values against normal Fibroblast cells. It is noteworthy to mention that DMSO concentration was constant on all the wells (i.e., (0.5% v/v or 1 μL/200 μL) per well), for the treated and the control ones. IC50 values were calculated using nonlinear regression of the dose–response curves using GraphPad Prism software 7.03.
(In general: Formazan colour is commonly taken as a measure of viable cells.)

For another assay, the system named is PC-3 cells. Kind of assay: MTT cytotoxicity/anti-proliferation assay, PC-3. The assay is classed as cell-based. The note with it: Homo sapiens; for IC50: PC-3, 72 h; for inhibition at 25 µM: PC-3, 25 µM; for inhibition at 25 µM / inhibition at 50 µM: 72 h; for inhibition at 50 µM: PC-3, 50 µM. The protocol:
as §1, §2, §3

The next assay deals with MDA-MB-231 cells. Put plainly: MTT cytotoxicity/anti-proliferation assay, MDA-MB-231. The note with it: for IC50: MDA-MB-231, 72 h; for inhibition at 25 µM: MDA-MB-231, 25 µM; for inhibition at 25 µM / inhibition at 50 µM: 72 h; for inhibition at 50 µM: MDA-MB-231, 50 µM. The assay is classed as cell-based, human. The protocol: as §1, §2, §3
The next assay addresses T1, Aurora-A kinase (Homo sapiens, UniProt O14965).
T1 construct: purchased Invitrogen (Carlsbad, CA, USA)
T1 sequence (O14965 1-403): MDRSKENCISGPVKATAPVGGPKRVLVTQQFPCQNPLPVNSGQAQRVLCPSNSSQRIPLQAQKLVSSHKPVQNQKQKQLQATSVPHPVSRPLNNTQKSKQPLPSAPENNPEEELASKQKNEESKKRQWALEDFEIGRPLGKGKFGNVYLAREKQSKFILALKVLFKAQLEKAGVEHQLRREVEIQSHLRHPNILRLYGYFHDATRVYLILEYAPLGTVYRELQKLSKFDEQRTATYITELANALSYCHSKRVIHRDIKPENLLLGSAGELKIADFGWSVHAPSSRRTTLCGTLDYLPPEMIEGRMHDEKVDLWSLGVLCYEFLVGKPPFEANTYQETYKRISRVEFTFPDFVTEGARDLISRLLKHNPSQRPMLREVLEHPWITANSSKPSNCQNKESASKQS
Put plainly: FRET-based Z'-LYTE kinase enzyme inhibition assay. The class given is biochemical.

The next assay concerns PANC1 cells. Put plainly: MTT cytotoxicity/anti-proliferation assay, PANC1. The assay is classed as cell-based, human. The note with it: for IC50: Panc1, 72 h; for inhibition at 25 µM / inhibition at 50 µM: PANC-1, 72 h; for inhibition at 25 µM: Panc1, 25 µM; for inhibition at 50 µM: Panc1, 50 µM. As to the method:
as §1, §2, §3

Assay [1] concerns PANC1, PC-3, T-47D and MDA-MB-231 cancer cells. Kind of assay: MTT anti-proliferative assay, four cancer cell lines together. The class given is cell-based. The settings on record: Homo sapiens; 72 h of incubation; read-out: IC50 values against PANC1, PC-3, T-47D and MDA-MB-231 (range over cell lines). As to the method: The human cell-lines triple negative breast adenocarcinoma MDA-MB-231, Pancreas adenocarcinoma PANC1, ductal breast carcinoma T-47D and fibroblasts were preserved and expanded in DMEM medium, while the prostate adenocarcinoma PC-3 cells were cultured in RPMI-1640 growth medium. All growth media were supplemented with 10% heat-inactivated fetal bovine serum (FBS). Cells were maintained under standard culture conditions at 37 °C, 5% CO2 in a humidified incubator. […] Cells were counted using conventional hemocytometer and trypan blue dye method. […] In 96-well coated flat bottom microplates, 100 μL cell suspension of PANC1 or T-47D cells were seeded at a density of 7000 cell/well, and 6000 cell/well for MDA-MB-231, PC-3, or fibroblasts, and incubated under the same conditions at 37 °C. After 24 h, each well was treated with the intended drug concentration diluted in 200 μL fresh media after removal of the old 100-μL media. […] Colorimetric absorbance (OD) was measured at 570 nm wavelength using 96-well plate reader (Tecan-Sunrise, Männedorf, Switzerland). […] The safety index for the compounds with specified IC50 values was evaluated via determining their IC50 values against normal Fibroblast cells. […] IC50 values were calculated using nonlinear regression of the dose–response curves using GraphPad Prism software 7.03.

Another assay deals with T-47D cells. Put plainly: MTT cytotoxicity/anti-proliferation assay, T-47D. The note with it: Homo sapiens, T47D, 72 h. The assay is classed as cell-based. As to the method:
as §1, §2, §3

Assay [2] relates to xenograft models of various cancer types. Further details: method as in PMID 19369091, PMID 14981513, PMID 18160664. The note with it: cited from earlier work.

Experimental for Aurora-A kinase: This bioassay was conducted using Z′-LYTE® kinase assay (Invitrogen, Carlsbad, CA, USA) [68, 69]. This biochemical assay depends on fluorescence emission as detection method utilizing a synthetic fluorescence resonance energy transfer (FRET) peptide with two fluorophores: coumarin that work as donor and fluorescein as acceptor [69]. Each hit or compound was dissolved in DMSO to form 10 mM stock solution. Hits were screened at 10 μM concentration. The bioassay was performed in black 384-well plate. For each assay, 100 nL of tested compound stock solution (10 mM) was mixed with 2.4 μL kinase buffer, 5 μL (peptide substrate/Aurora-A Kinase) mixture, and 2.5 μL ATP solution.
The tests were conducted in duplicates.

`COc1ccc(C(=O)C2=NON3O[C@@]23C(=O)c2ccc(OC)cc2)cc1` (stereo partly shown) [Hit 85]: the inhibition at 25 µM with Fibroblasts worked out at 45.4 ± 0.05%; in the assay on PC-3 cells it was 77 ± 0.007%; with MDA-MB-231 cells (Homo sapiens), 82.3 ± 0.006%; with PANC1 cells (Homo sapiens) it was 92.97 ± 0.004%; in the assay on T-47D cells it was 84.6 ± 0.002%. Besides, the inhibition at 50 µM with Fibroblasts turned out to be 83.4 ± 0.01%; in the assay with PC-3 cells it was 87.3 ± 0.003%; in the assay on MDA-MB-231 cells (Homo sapiens), 87.7 ± 0.001%; in the assay on PANC1 cells (Homo sapiens) it was 94.1 ± 0.001%; in the assay on T-47D cells it was 86 ± 0.002%. The IC50 with Fibroblasts is 27.5 ± 1.5 µM; in the assay with PC-3 cells it was 8.2 ± 1.4 µM; in the assay on MDA-MB-231 cells (Homo sapiens) it was 11 ± 0.43 µM; on Aurora-A kinase (IC50, 0.1–100 μM, duplicates, nonlinear regression) it was 4.29 µM and 4.3 µM; in the assay with PANC1 cells (Homo sapiens, PANC-1, 72 h) it was 3.5 µM; in the assay with PANC1 cells it was 3.54 ± 0.11 µM. The results for the IC50 (in assay [1]; with T-47D cells) were 3.5 to 11 µM and 8.8 ± 0.74 µM, respectively. For the same compound, the “Hill Slope” value on Aurora-A kinase (dose-response curve, GraphPad Prism) was determined as 1.70. Further, the inhibition at 10 µM at Aurora-A kinase (read-out: % Inhibition at 10 µM) turned out to be 56%.

On to `Cc1cc(Nc2cc(N3CCN(C)CC3)nc(Sc3ccc(NC(=O)C4CC4)cc3)n2)[nH]n1` [Tozasertib/(VX-680), Tozasertib, reference compound], for which the inhibition at 25 µM with Fibroblasts turned out to be 85 ± 0.006%; in the assay with PC-3 cells, 49.5 ± 0.006%; in the assay on MDA-MB-231 cells (Homo sapiens), 81 ± 0.008%; in the assay with PANC1 cells (Homo sapiens) it was 80.9 ± 0.005%; in the assay on T-47D cells, 53.4 ± 0.02%. Moreover, the inhibition at 50 µM in the assay with Fibroblasts was found to be 89 ± 0.005%; in the assay on PC-3 cells, 68.7 ± 0.011%; in the assay with MDA-MB-231 cells (Homo sapiens) it was 87 ± 0.007%; in the assay with PANC1 cells (Homo sapiens), 89.3 ± 0.015%; with T-47D cells, 80.9 ± 0.01%. The IC50 is 9.2 ± 0.6 µM in the assay with Fibroblasts; 21.4 ± 1.6 µM with PC-3 cells; about 7.6 µM in the assay on MDA-MB-231 cells (Homo sapiens); 7.7 ± 0.65 µM in the assay on MDA-MB-231 cells; about 7.6 µM in the assay with PANC1 cells (Homo sapiens, PANC-1, 72 h); 17.9 ± 1.64 µM in the assay with T-47D cells. For the same compound, the “reduced the tumor size” value in assay [2] is 22–98%.
